Legend:
Assay type in all cases: in vivo
[1] = test system: directly sowed Oryza sativa; test: Test Example 3: effect on crop by application to foliage (Wagner pot, water depth 0.1-0.5 cm); details: Nineteenth Table; application to foliage; application herbicide amount 320 g/ha
Method in brief: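 Rice-field weeds and directly sown rice were grown 14 days in flooded alluvial soil (water depth 0.1–0.5 cm) at 25–30 °C in a greenhouse. An emulsion formulation diluted to the stated g/ha rate was sprayed onto stems and leaves. Effects were scored on a 0–5 scale (herbicidal ratio bands) three weeks after treatment.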

Avena fatua = test: Test Example 4: herbicidal effect by application to foliage (diluvial soil, plastic box); details: application to foliage, 320 g/ha
Method in brief: (§1)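 Plants were grown in sterilized diluvial soil in a greenhouse at 25-30° C for 14 days, then sprayed on stems and leaves with water-diluted emulsion formulation at set rates in g/ha. Weed control and crop injury were scored 3 weeks after treatment on a 0-5 herbicidal-ratio scale, from 0 (≤5%) to 5 (≥90%).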

Chenopodium album = test: as above; details: application to foliage, 320 g/ha
Method in brief: as §1

Veronica persica = test: as above; details: application to foliage, 320 g/ha
Method in brief: as §1

[2] = test system: Echinochloa crus-galli var. crus-galli; test: as above; details: application to foliage, 320 g/ha
Method in brief: as §1

Abutilon theophrasti = test: as above; details: application to foliage, 320 g/ha
Method in brief: as §1

Apera spica-venti. = test: as above; details: application to foliage, 320 g/ha
Method in brief: as §1

Galium spurium = test: as above; details: application to foliage, 320 g/ha
Method in brief: as §1

[3] = test system: transplanted Oryza sativa; test: Test Example 1: effect on crop, application before weed generation in submerged conditions; details: Seventeenth Table; for a: transplanted Oryza sativa (effect on crop grade): Application herbicide amount 320 g/ha; for a (transplanted Oryza sativa) effect on crop grade: application herbicide amount 320 g/ha
Method in brief: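 Pre-emergence application to water surface of submerged pots (4 cm depth, alluvial soil) on sowing day, with 2.5-leaf rice transplanted; emulsion diluted to g/ha rates. Grown in greenhouse at 25–30 °C; 0–5 herbicidal/crop-effect score after three weeks.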

Compound | b (effect on crop grade) [1] | herbicidal effect, I (Avena fatua) (Avena fatua) | herbicidal effect, O (Chenopodium album) (Chenopodium album) | herbicidal effect, R (Veronica persica) (Veronica persica) | herbicidal effect, H (Echinochloa crus-galli var. crus-galli) [2] | herbicidal effect, M (Abutilon theophrasti) (Abutilon theophrasti) | herbicidal effect, L (Apera spica-venti.) (Apera spica-venti.) | herbicidal effect, Q (Galium spurium) (Galium spurium) | a: transplanted Oryza sativa (effect on crop grade) [3] | a (transplanted Oryza sativa) effect on crop grade [3]
CC(C)N(C)c1nnc2c(C(=O)Nc3nnnn3C)ccc(C(F)(F)F)n12 [2-082] | 5 (Herbicidal ratio of 90% or more (almost completely withered)) | 2 (Herbicidal ratio of 20% or more and less than 40%) | 5 (Herbicidal ratio of 90% or more (almost completely withered)) | 4 (Herbicidal ratio of 70% or more and less than 90%) | 5 (Herbicidal ratio of 90% or more (almost completely withered)) | 5 (Herbicidal ratio of 90% or more (almost completely withered)) | 4 (Herbicidal ratio of 70% or more and less than 90%) | 4 (Herbicidal ratio of 70% or more and less than 90%) | 5 (Herbicidal ratio of 90% or more (almost completely withered)) | 
CN(c1nnc2c(C(=O)Nc3nnnn3C)ccc(C(F)(F)F)n12)C1CCCCC1 [2-083] | 0 (Herbicidal ratio of 5% or less (almost no effect)) | 2 (Herbicidal ratio of 20% or more and less than 40%) | 5 (Herbicidal ratio of 90% or more (almost completely withered)) | 4 (Herbicidal ratio of 70% or more and less than 90%) | 5 (Herbicidal ratio of 90% or more (almost completely withered)) | 5 (Herbicidal ratio of 90% or more (almost completely withered)) | 1 (Herbicidal ratio of 5% or more and less than 20%) | 3 (Herbicidal ratio of 40% or more and less than 70%) | 2 (Herbicidal ratio of 20% or more and less than 40%) | 
Cn1nnnc1NC(=O)c1ccc(C(F)(F)F)n2c(SCC3CC3)nnc12 [2-084] | 5 (Herbicidal ratio of 90% or more (almost completely withered)) | 4 (Herbicidal ratio of 70% or more and less than 90%) | 5 (Herbicidal ratio of 90% or more (almost completely withered)) | 3 (Herbicidal ratio of 40% or more and less than 70%) | 5 (Herbicidal ratio of 90% or more (almost completely withered)) | 5 (Herbicidal ratio of 90% or more (almost completely withered)) | 4 (Herbicidal ratio of 70% or more and less than 90%) | 4 (Herbicidal ratio of 70% or more and less than 90%) | 4 (Herbicidal ratio of 70% or more and less than 90%) | 
Cn1nnnc1NC(=O)c1ccc(C(F)(F)F)n2c(SCC3CCCO3)nnc12 (stereo not drawn) [2-085] | 4 (Herbicidal ratio of 70% or more and less than 90%) | 4 (Herbicidal ratio of 70% or more and less than 90%) | 5 (Herbicidal ratio of 90% or more (almost completely withered)) | 4 (Herbicidal ratio of 70% or more and less than 90%) | 5 (Herbicidal ratio of 90% or more (almost completely withered)) | 5 (Herbicidal ratio of 90% or more (almost completely withered)) | 4 (Herbicidal ratio of 70% or more and less than 90%) | 4 (Herbicidal ratio of 70% or more and less than 90%) | 1 (Herbicidal ratio of 5% or more and less than 20%) | 
Cn1nnnc1NC(=O)c1ccc(C(F)(F)F)n2c(SCC#N)nnc12 [2-086] | 3 (Herbicidal ratio of 40% or more and less than 70%) | 3 (Herbicidal ratio of 40% or more and less than 70%) | 5 (Herbicidal ratio of 90% or more (almost completely withered)) | 5 (Herbicidal ratio of 90% or more (almost completely withered)) | 5 (Herbicidal ratio of 90% or more (almost completely withered)) | 5 (Herbicidal ratio of 90% or more (almost completely withered)) | 4 (Herbicidal ratio of 70% or more and less than 90%) | 4 (Herbicidal ratio of 70% or more and less than 90%) | 0 (Herbicidal ratio of 5% or less (almost no effect)) | 
CCN(CC)c1nnc2c(C(=O)Nc3nnnn3C)ccc(C(F)(F)F)n12 [2-089] | 2 (Herbicidal ratio of 20% or more and less than 40%) | 1 (Herbicidal ratio of 5% or more and less than 20%) | 5 (Herbicidal ratio of 90% or more (almost completely withered)) | 5 (Herbicidal ratio of 90% or more (almost completely withered)) | 4 (Herbicidal ratio of 70% or more and less than 90%) | 4 (Herbicidal ratio of 70% or more and less than 90%) | 4 (Herbicidal ratio of 70% or more and less than 90%) | 3 (Herbicidal ratio of 40% or more and less than 70%) | 4 (Herbicidal ratio of 70% or more and less than 90%) | 
COc1ccc(N(C)c2nnc3c(C(=O)Nc4nnnn4C)ccc(C(F)(F)F)n23)cc1 [2-099] | 4 (Herbicidal ratio of 70% or more and less than 90%) | 2 (Herbicidal ratio of 20% or more and less than 40%) | 5 (Herbicidal ratio of 90% or more (almost completely withered)) | 5 (Herbicidal ratio of 90% or more (almost completely withered)) | 5 (Herbicidal ratio of 90% or more (almost completely withered)) | 4 (Herbicidal ratio of 70% or more and less than 90%) | 1 (Herbicidal ratio of 5% or more and less than 20%) | 4 (Herbicidal ratio of 70% or more and less than 90%) |  | 4 (Herbicidal ratio of 70% or more and less than 90%)
C=CCN(C)c1nnc2c(C(=O)Nc3nnnn3C)ccc(C(F)(F)F)n12 [2-100] | 3 (Herbicidal ratio of 40% or more and less than 70%) | 3 (Herbicidal ratio of 40% or more and less than 70%) | 5 (Herbicidal ratio of 90% or more (almost completely withered)) | 5 (Herbicidal ratio of 90% or more (almost completely withered)) | 5 (Herbicidal ratio of 90% or more (almost completely withered)) | 5 (Herbicidal ratio of 90% or more (almost completely withered)) | 4 (Herbicidal ratio of 70% or more and less than 90%) | 5 (Herbicidal ratio of 90% or more (almost completely withered)) |  | 3 (Herbicidal ratio of 40% or more and less than 70%)
COCCSc1nnc2c(C(=O)Nc3nnnn3C)ccc(C(F)(F)F)n12 [2-101] | 4 (Herbicidal ratio of 70% or more and less than 90%) | 3 (Herbicidal ratio of 40% or more and less than 70%) | 5 (Herbicidal ratio of 90% or more (almost completely withered)) | 5 (Herbicidal ratio of 90% or more (almost completely withered)) | 5 (Herbicidal ratio of 90% or more (almost completely withered)) | 5 (Herbicidal ratio of 90% or more (almost completely withered)) | 4 (Herbicidal ratio of 70% or more and less than 90%) | 4 (Herbicidal ratio of 70% or more and less than 90%) |  | 3 (Herbicidal ratio of 40% or more and less than 70%)
C=CCSc1nnc2c(C(=O)Nc3nnnn3C)ccc(C(F)(F)F)n12 [2-102] | 1 (Herbicidal ratio of 5% or more and less than 20%) | 1 (Herbicidal ratio of 5% or more and less than 20%) | 5 (Herbicidal ratio of 90% or more (almost completely withered)) | 5 (Herbicidal ratio of 90% or more (almost completely withered)) | 5 (Herbicidal ratio of 90% or more (almost completely withered)) | 5 (Herbicidal ratio of 90% or more (almost completely withered)) | 3 (Herbicidal ratio of 40% or more and less than 70%) | 3 (Herbicidal ratio of 40% or more and less than 70%) |  | 1 (Herbicidal ratio of 5% or more and less than 20%)

Reference: patent publication US9708314B2, “Heterocyclic amide compound” (NISSAN CHEMICAL INDUSTRIES, LTD., priority 2013, dated 2017)
